From PMC12491518, “Fabrication of cytotoxic mirror image nanopores” (Nature Communications, 2025)
Where a SMILES comes first, the peptide text is derived from it. [ ]: non-standard residue; d: D form.

Key:
[1] = molecular target: proteinase K (Parengyodontium album, UniProt P06873); assay: Proteinase K enzyme activity on peptides (SDS-PAGE); format: in vitro ADME; conditions: 0.5 mg/ml proteinase K, 63°C, 30 min, 10 mM phosphate buffer with 0.1% DDM pH 7.4; SDS-PAGE and bilayer insertion
Procedure: applied through Ag/AgCl electrodes with agarose salt bridges. The pore formation in the […]
The 'reverse potential' (Vm) was calculated using the Goldman-Hodgkin-Katz equation1. […]
In this equation, R is the universal gas constant (8.314 J.K-1.mol-1), T is the temperature in Kelvin (K = °C + 273.15), F is Faraday's constant (96485 C.mol-1), PK+ is the membrane permeability for K+, PCl- is the relative membrane permeability for Cl-, [K+]cis is the concentration of K+ in the cis side, [K+]trans is the concentration of K+ in the trans side, [Cl-]cis is the concentration of Cl- in the cis side and [Cl-]trans is the concentration of Cl- in the trans side.
The reverse potential for DpPorA and DpPorA DE was calculated to be +21 mV and +40 mV, […]
c) Proteinase K enzyme activity on DpPorA and DpPorA DE pores
DpPorA peptides were prepared in 10 mM phosphate buffer with 0.1% DDM (pH 7.4). A final concentration of 0.5 mg/ml of freshly prepared proteinase K solution was added to the samples.
The reaction mixtures were heated at 63°C for 30 min. The proteolysis was terminated by adding 2 mM PMSF (phenylmethyl sulfonyl fluoride).2 The reaction products were loaded on a Mini-PROTEAN® TGX™ precast gel (Bio-Rad) with Protein Standard Marker (Bio-Rad) […]

[2] = Single-channel electrical recordings in planar lipid bilayers; format: biochemical; conditions: for mean unitary conductance (G): 10 mM HEPES, pH 7.4, DpPorA at +50 mV, n = 83 insertions, DpPorA DE n = 61 insertions; for experimental conductance Gexp: Supplementary Table 1
Procedure: High-resolution electrical recordings for the single-channel characterization were conducted in planar lipid bilayers made up of 1,2-diphytanoyl-sn-glycero-3-phosphocholine (DPhPC, Avanti Polar Lipids)[23],[27],[51]. The lipid bilayer is formed across a polytetrafluoroethylene (Teflon) aperture of ~100 µm in diameter. Teflon is placed between the two sides of the Delrin bilayer chamber, partitioning it into cis and trans compartments (600 µL each). For constructing a solvent-free lipid bilayer, the aperture is made lipophilic by pre-painting both sides with hexadecane in n-pentane (1 μL, 5 mg mL^−1)[51]. After ~10 min, the chambers were filled with buffered electrolytes (1 M KCl, 10 mM HEPES, pH 7.4), and DPhPC in n-pentane (1 μL, 5 mg mL^−1) was added. After ~15 min incubation, the lipid bilayer is formed by raising and lowering the electrolyte solution, bringing the two lipid monolayers together at the aperture. The cis compartment was connected to the ground electrode, while the trans compartment was connected to the working live electrode. Subsequently, DpPorA or DpPorA DE peptides solubilized in 0.1% DDM (1 µL, 100 µg mL^−1) were consistently introduced into the cis compartment of the bilayer. The peptide pore insertion was facilitated by mixing the bilayer chamber and applying a high voltage of +200 mV. The single-channel electrical properties of the peptide pores and analyte-induced pore blockages were examined in 1 M KCl, 10 mM HEPES, pH 7.4. Ion selectivity was assessed under asymmetric salt conditions with a KCl concentration gradient across the planar lipid bilayer (0.15 M cis/1 M trans) (SI text)[27]. The ion current was acquired and amplified using an Axopatch 200B amplifier, digitized with Digidata 1550B digitizer, and recorded using the pClamp 11 acquisition software (Molecular Devices, CA). The current signals were filtered with a 2 kHz low-pass filter frequency and 10 kHz sampling frequency, or with 10 kHz low-pass filter frequency and 50 kHz sampling frequency, in line with the requirement.

Chain of proteinase K (P06873 106-384, species assumed): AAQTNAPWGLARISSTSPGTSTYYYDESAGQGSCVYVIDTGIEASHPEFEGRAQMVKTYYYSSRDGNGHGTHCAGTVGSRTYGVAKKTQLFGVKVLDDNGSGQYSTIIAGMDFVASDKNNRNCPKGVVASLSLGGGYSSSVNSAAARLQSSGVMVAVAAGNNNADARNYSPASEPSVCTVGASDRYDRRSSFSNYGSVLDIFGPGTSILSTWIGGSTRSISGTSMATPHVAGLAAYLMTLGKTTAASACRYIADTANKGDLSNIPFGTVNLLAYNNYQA

CC[C@@H](C)[C@@H](NC(=O)[C@H](N)CCSC)C(=O)N[C@H](CC(=O)O)C(=O)N[C@H](CCC(N)=O)C(=O)N[C@@H](C(=O)N[C@@H](C(=O)N[C@H](CCC(=O)O)C(=O)N[C@@H](C(=O)N[C@H](Cc1ccccc1)C(=O)NCC(=O)N[C@H](CCC(N)=O)C(=O)N[C@H](CC(C)C)C(=O)NCC(=O)N[C@@H](C(=O)N[C@H](Cc1ccccc1)C(=O)N[C@H](CC(C)C)C(=O)NCC(=O)NCC(=O)N[C@H](Cc1ccccc1)C(=O)NCC(=O)N[C@H](CC(N)=O)C(=O)N[C@@H](C(=O)N[C@H](Cc1ccccc1)C(=O)N[C@H](CCCCN)C(=O)NCC(=O)N[C@H](CC(C)C)C(=O)N[C@H](CCCCN)C(=O)N[C@H](C)C(=O)N[C@@H](C(=O)N[C@@H](C(=O)N[C@H](C)C(=O)N[C@@H](C(=O)N[C@@H](C(=O)N[C@@H](C(=O)N[C@H](CCCCN)C(=O)N[C@H](Cc1c[nH]c2ccccc12)C(=O)N[C@@H](C(=O)N[C@H](C)C(=O)N[C@H](C)C(=O)N[C@H](CCCCN)C(=O)O)[C@H](C)O)C(C)C)[C@H](C)CC)[C@H](C)O)[C@H](C)CC)C(C)C)[C@H](C)CC)[C@H](C)O)[C@H](C)CC)[C@H](C)O)[C@H](C)CC [DpPorA DE] (H-[dM][dI][dD][dQ][dI][dT][dE][dI][dF]G[dQ][dL]G[dT][dF][dL]GG[dF]G[dN][dI][dF][dK]G[dL][dK][dA][dV][dI][dA][dT][dI][dV][dK][dW][dT][dA][dA][dK]-OH; N-terminus and C-terminus assumed)
stability to proteinase K [1]: protease-stable
mean unitary conductance (G) ([2]; 1 M KCl): 3.80 ± 0.2 nS
experimental conductance Gexp [2]: 3.8 ± 0.2 nS

CC[C@@H](C)[C@@H](NC(=O)[C@H](N)CCSC)C(=O)N[C@H](CC(=O)O)C(=O)N[C@H](CCC(N)=O)C(=O)N[C@@H](C(=O)N[C@@H](C(=O)N[C@H](CCC(=O)O)C(=O)N[C@@H](C(=O)N[C@H](Cc1ccccc1)C(=O)NCC(=O)N[C@H](CCC(N)=O)C(=O)N[C@H](CC(C)C)C(=O)NCC(=O)N[C@@H](C(=O)N[C@H](Cc1ccccc1)C(=O)N[C@H](CC(C)C)C(=O)NCC(=O)NCC(=O)N[C@H](Cc1ccccc1)C(=O)NCC(=O)N[C@H](CC(N)=O)C(=O)N[C@@H](C(=O)N[C@H](Cc1ccccc1)C(=O)N[C@H](CCCCN)C(=O)NCC(=O)N[C@H](CC(C)C)C(=O)N[C@H](CCCCN)C(=O)N[C@H](CC(=O)O)C(=O)N[C@@H](C(=O)N[C@@H](C(=O)N[C@H](CCC(=O)O)C(=O)N[C@@H](C(=O)N[C@@H](C(=O)N[C@@H](C(=O)N[C@H](CCCCN)C(=O)N[C@H](Cc1c[nH]c2ccccc12)C(=O)N[C@@H](C(=O)N[C@H](C)C(=O)N[C@H](C)C(=O)N[C@H](CCCCN)C(=O)O)[C@H](C)O)C(C)C)[C@H](C)CC)[C@H](C)O)[C@H](C)CC)C(C)C)[C@H](C)CC)[C@H](C)O)[C@H](C)CC)[C@H](C)O)[C@H](C)CC [DpPorA] (H-[dM][dI][dD][dQ][dI][dT][dE][dI][dF]G[dQ][dL]G[dT][dF][dL]GG[dF]G[dN][dI][dF][dK]G[dL][dK][dD][dV][dI][dE][dT][dI][dV][dK][dW][dT][dA][dA][dK]-OH; N-terminus and C-terminus assumed)
stability to proteinase K [1]: resistant to proteinase K action
mean unitary conductance (G) ([2]; 1 M KCl): 2.80 ± 0.2 nS
unitary conductance (G) of proteinase K treated peptides ([2]; 1 M KCl, after proteinase K treatment, n = 25): 2.8 ± 0.2 nS
pores with slightly higher current at negative than positive voltages ([2]; 1 M KCl, current rectification of n = 30 single channels): 90%
experimental conductance Gexp [2]: 2.8 ± 0.2 nS
